Literature values, collected in patent publication US20230340373A1, “CLEANING WIPES” (Tygrus LLC, priority 2022, published 2023).

Settings: 25 C; cited from earlier work

In the case of `C=CCc1ccc(O)c(OC)c1` [Eugenol], the pKa is listed as 10.19.
